Data: PubChem BioAssay (NCI)
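Compound exposure: 48 hours, 5 concentrations, 96-well plates. GI50 = concentration required for 50% inhibition of growth. TGI denotes the concentration required for complete inhibition of growth.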

Key:
Assay in all cases: DTP human tumour cell line panel, 48 h
786-0 renal = test system: 786-0 renal
COLO 205 colon = test system: COLO 205 colon
MDA-MB-231 breast = test system: MDA-MB-231 breast
LOX IMVI melanoma = test system: LOX IMVI melanoma
BT-549 breast = test system: BT-549 breast
M14 melanoma = test system: M14 melanoma
EKVX NSCLC = test system: EKVX NSCLC
A498 renal = test system: A498 renal
HCT-116 colon = test system: HCT-116 colon
SW-620 colon = test system: SW-620 colon
UACC-62 melanoma = test system: UACC-62 melanoma
SK-MEL-28 melanoma = test system: SK-MEL-28 melanoma
SK-OV-3 ovarian = test system: SK-OV-3 ovarian
HOP-92 NSCLC = test system: HOP-92 NSCLC
KM12 colon = test system: KM12 colon
PC-3 prostate = test system: PC-3 prostate
HOP-62 NSCLC = test system: HOP-62 NSCLC
MCF7 breast = test system: MCF7 breast
RPMI-8226 leukemia = test system: RPMI-8226 leukemia
MDA-MB-435 = test system: MDA-MB-435
SK-MEL-5 melanoma = test system: SK-MEL-5 melanoma
OVCAR-8 ovarian = test system: OVCAR-8 ovarian
NCI-H460 lung = test system: NCI-H460 lung
NCI-H226 lung = test system: NCI-H226 lung
OVCAR-5 ovarian = test system: OVCAR-5 ovarian
ACHN renal = test system: ACHN renal
A549 NSCLC = test system: A549 NSCLC
SK-MEL-2 melanoma = test system: SK-MEL-2 melanoma
SF-295 CNS = test system: SF-295 CNS
HT29 colon = test system: HT29 colon
UACC-257 melanoma = test system: UACC-257 melanoma
SR leukemia = test system: SR leukemia
DU-145 prostate = test system: DU-145 prostate
MOLT-4 leukemia = test system: MOLT-4 leukemia
SF-539 CNS = test system: SF-539 CNS
HCC-2998 colon = test system: HCC-2998 colon
K-562 leukemia = test system: K-562 leukemia
IGROV1 ovarian = test system: IGROV1 ovarian
SNB-75 CNS = test system: SNB-75 CNS
CAKI-1 renal = test system: CAKI-1 renal
HCT-15 colon = test system: HCT-15 colon
TK-10 renal = test system: TK-10 renal
SN12C renal = test system: SN12C renal
U251 CNS = test system: U251 CNS
UO-31 renal = test system: UO-31 renal
T-47D breast = test system: T-47D breast
CCRF-CEM leukemia = test system: CCRF-CEM leukemia
SNB-19 CNS = test system: SNB-19 CNS
MALME-3M melanoma = test system: MALME-3M melanoma
OVCAR-3 ovarian = test system: OVCAR-3 ovarian
NCI/ADR-RES ovarian = test system: NCI/ADR-RES ovarian
RXF 393 renal = test system: RXF 393 renal
NCI-H522 lung = test system: NCI-H522 lung
SF-268 CNS = test system: SF-268 CNS
HS 578T breast = test system: HS 578T breast
OVCAR-4 ovarian = test system: OVCAR-4 ovarian

## COc1ccc(C2C(C#N)=C(N)Oc3c2sc2ccc(C)cc32)cc1 (configuration not stated)
786-0 renal
  GI50: 3.64 µM
  TGI: 15.1 µM
COLO 205 colon
  GI50: 3.7 µM
  TGI: > 100 µM
MDA-MB-231 breast
  GI50: 9.6 µM
  TGI: 86.7 µM
LOX IMVI melanoma
  GI50: 5.92 µM
  TGI: > 100 µM
BT-549 breast
  GI50: 2.7 µM
  TGI: 7.68 µM
M14 melanoma
  GI50: 2.84 µM
  TGI: 14.6 µM
EKVX NSCLC
  GI50: 7.35 µM
  TGI: > 100 µM
A498 renal
  GI50: 47 µM
  TGI: > 100 µM
HCT-116 colon
  GI50: 3.68 µM
  TGI: 83.9 µM
SW-620 colon
  GI50: 2.81 µM
  TGI: > 100 µM
UACC-62 melanoma
  GI50: 3.26 µM
  TGI: 49.9 µM
SK-MEL-28 melanoma
  GI50: 5.86 µM
  TGI: > 100 µM
SK-OV-3 ovarian
  GI50: 5.2 µM
  TGI: 54.8 µM
HOP-92 NSCLC
  GI50: 1.05 µM
  TGI: 7.07 µM
KM12 colon
  GI50: 3.81 µM
  TGI: > 100 µM
PC-3 prostate
  GI50: 3.46 µM
  TGI: > 100 µM
HOP-62 NSCLC
  GI50: 3.71 µM
  TGI: 28.1 µM
MCF7 breast
  GI50: 1.25 µM
  TGI: > 100 µM
RPMI-8226 leukemia
  GI50: 3.95 µM
  TGI: > 100 µM
MDA-MB-435
  GI50: 0.568 µM
  TGI: 2.17 µM
SK-MEL-5 melanoma
  GI50: 10.7 µM
  TGI: > 100 µM
OVCAR-8 ovarian
  GI50: 9.93 µM
  TGI: > 100 µM
NCI-H460 lung
  GI50: 3.41 µM
  TGI: 18.3 µM
NCI-H226 lung
  GI50: 3.92 µM
  TGI: 57.5 µM
OVCAR-5 ovarian
  GI50: 5.77 µM
  TGI: > 100 µM
ACHN renal
  GI50: 6.44 µM
  TGI: > 100 µM
A549 NSCLC
  GI50: 6.94 µM
  TGI: > 100 µM
SK-MEL-2 melanoma
  GI50: 2.2 µM
  TGI: 7.49 µM
SF-295 CNS
  GI50: 3.93 µM
  TGI: 28.6 µM
HT29 colon
  GI50: 3.14 µM
  TGI: 9.79 µM
UACC-257 melanoma
  GI50: 4.03 µM
  TGI: > 100 µM
SR leukemia
  GI50: 2.42 µM
  TGI: > 100 µM
DU-145 prostate
  GI50: 7.08 µM
  TGI: > 100 µM
MOLT-4 leukemia
  GI50: 3.63 µM
  TGI: > 100 µM
SF-539 CNS
  GI50: 3.21 µM
  TGI: 13.4 µM
HCC-2998 colon
  GI50: 6.37 µM
  TGI: > 100 µM
K-562 leukemia
  GI50: 1.56 µM
  TGI: > 100 µM
IGROV1 ovarian
  GI50: 4.64 µM
  TGI: > 100 µM
SNB-75 CNS
  GI50: 1.9 µM
  TGI: 5.51 µM
CAKI-1 renal
  GI50: 3.52 µM
  TGI: 56.4 µM
HCT-15 colon
  GI50: 3.35 µM
  TGI: > 100 µM
TK-10 renal
  GI50: 23 µM
  TGI: > 100 µM
SN12C renal
  GI50: 4.46 µM
  TGI: > 100 µM
U251 CNS
  GI50: 3.78 µM
  TGI: 27.5 µM
UO-31 renal
  GI50: 3.56 µM
  TGI: > 100 µM
T-47D breast
  GI50: 3.13 µM
  TGI: > 100 µM
CCRF-CEM leukemia
  GI50: 3.78 µM
  TGI: > 100 µM
SNB-19 CNS
  GI50: 6.01 µM
  TGI: 86.7 µM
MALME-3M melanoma
  GI50: 3.56 µM
  TGI: 62.3 µM
OVCAR-3 ovarian
  GI50: 3.71 µM
  TGI: > 100 µM
NCI/ADR-RES ovarian
  GI50: 3.34 µM
  TGI: > 100 µM
RXF 393 renal
  GI50: 2.64 µM
  TGI: 9.98 µM
NCI-H522 lung
  GI50: 1.24 µM
  TGI: 4.48 µM
SF-268 CNS
  GI50: 5.24 µM
  TGI: > 100 µM
HS 578T breast
  GI50: 3.31 µM
  TGI: 36.8 µM
OVCAR-4 ovarian
  GI50: 8.07 µM
  TGI: > 100 µM
